Bridge positions count the residues as written; N and C are the ends. Square brackets hold non-standard residues; d marks the D form. Peptide text beside a SMILES is read from it. ξ: configuration not given here. Bip = N[C@@H](Cc1ccc(-c2ccccc2)cc1)C(=O)O; Phe(3-CN) = N#Cc1cccc(C[C@H](N)C(=O)O)c1; 1Nal = N[C@@H](Cc1cccc2ccccc12)C(=O)O; Cit = NC(=O)NCCC[C@H](N)C(=O)O; Thr(3ξ) = CC(O)[C@H](N)C(=O)O; Dap(Me) = CNC[C@H](N)C(=O)O; Pip = O=C(O)[C@@H]1CCCCN1; NMeA = CN[C@@H](C)C(=O)O; Orn = NCCC[C@H](N)C(=O)O; Dab = NCC[C@H](N)C(=O)O

What is called IC50 is the concentration at which inhibition is half-maximal.

The target in this experiment is T1, PE-labeled human PD-L1-Ig binding to Jurkat cell line over-expressing human PD-1 (Jurkat-PD-1) (Homo sapiens, UniProt Q15116).
T1 construct: expressed in transfected cells; host or cells: Jurkat
T1 sequence (Q15116 25-288): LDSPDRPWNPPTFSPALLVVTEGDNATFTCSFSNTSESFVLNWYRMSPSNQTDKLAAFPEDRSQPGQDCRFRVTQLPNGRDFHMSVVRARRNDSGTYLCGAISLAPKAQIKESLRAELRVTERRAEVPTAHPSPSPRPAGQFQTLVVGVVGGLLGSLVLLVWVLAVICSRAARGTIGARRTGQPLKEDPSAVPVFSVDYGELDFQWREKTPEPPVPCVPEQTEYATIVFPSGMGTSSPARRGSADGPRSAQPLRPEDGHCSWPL
Nature of the experiment: Jurkat-PD-1 Cell Binding High-Content Screening Assay (CBA): Method 1. To be noted: Jurkat-hPD-1 cells, PE-labeled PD-L1-Ig 20 nM final; read-out: Jurkat HPDL1 PD1 IC50 (uM) (Method 1).
For the compound `CC(C)C[C@@H]1NC(=O)[C@H](CCN)NC(=O)[C@@H](CC(C)C)NC(=O)[C@@H]2CCCCN2C(=O)[C@H](C(C)C)NC(=O)[C@H](Cc2ccc(-c3ccccc3)cc2)NC(=O)[C@H](C(C)C)NC(=O)[C@H](Cc2c[nH]c3ccccc23)NC(=O)[C@H](CC(=O)O)NC(=O)[C@H](Cc2ccc(O)cc2)NC(=O)[C@H](CC(N)=O)NC(=O)CSC[C@@H](C(=O)N[C@@H](C)C(N)=O)NC(=O)[C@H]([C@@H](C)O)NC(=O)[C@H](C(C)C)NC1=O` [Compound 1298] ({CH2CO}-NYDWV[Bip]V[Pip][dL][Dab]LVTCA-NH2; thioether N-14), the IC50 is 0.03 µM.
As to `CC(C)C[C@@H]1NC(=O)[C@H](CCCN)NC(=O)[C@@H](CC(C)C)NC(=O)[C@H](C)N(C)C(=O)[C@H](CCCNC(=N)N)NC(=O)[C@H](Cc2ccc(-c3ccccc3)cc2)NC(=O)[C@H](C(C)C)NC(=O)[C@H](Cc2c[nH]c3ccccc23)NC(=O)[C@H](CC(=O)O)NC(=O)[C@H](Cc2ccc(O)cc2)NC(=O)[C@H](CC(N)=O)NC(=O)CSC[C@@H](C(=O)N[C@@H](CCC(=O)O)C(N)=O)NC(=O)[C@H]([C@@H](C)O)NC(=O)[C@H](C(C)C)NC1=O` [Compound 1165] ({CH2CO}-NYDWV[Bip]R[NMeA][dL][Orn]LVTCE-NH2; thioether N-14), the IC50 was 0.15 µM.
For the compound `CC(C)C[C@@H]1NC(=O)[C@H](CCCNC(=N)N)NC(=O)[C@H](Cc2cccc3ccccc23)NC(=O)[C@H](C)N(C)C(=O)[C@H](CCCNC(=N)N)NC(=O)[C@H](Cc2ccc(-c3ccccc3)cc2)NC(=O)[C@H](C(C)C)NC(=O)[C@H](Cc2c[nH]c3ccccc23)NC(=O)[C@H](CC(=O)O)NC(=O)[C@H](Cc2ccc(O)cc2)NC(=O)[C@H](Cc2ccccc2)NC(=O)CSC[C@@H](C(=O)NCC(N)=O)NC(=O)[C@H](CO)NC(=O)[C@H](C(C)C)NC1=O` [Compound 1012] ({CH2CO}-FYDWV[Bip]R[NMeA][1Nal]RLVSCG-NH2; thioether N-14), the IC50 was 0.13 µM.
Take `CC(C)C[C@@H]1NC(=O)[C@H](CCCNC(=N)N)NC(=O)[C@@H](Cc2ccccc2)NC(=O)[C@H](C)N(C)C(=O)[C@H](CCCNC(=N)N)NC(=O)[C@H](Cc2ccc(-c3ccccc3)cc2)NC(=O)[C@H](C(C)C)NC(=O)[C@H](Cc2c[nH]c3ccccc23)NC(=O)[C@H](CC(=O)O)NC(=O)[C@H](Cc2ccc(O)cc2)NC(=O)[C@H](Cc2cnc[nH]2)NC(=O)CSC[C@@H](C(=O)NCC(N)=O)NC(=O)[C@H](CO)NC(=O)[C@H](C(C)C)NC1=O` [Compound 1031] ({CH2CO}-HYDWV[Bip]R[NMeA][dF]RLVSCG-NH2; thioether N-14): the IC50 came to 0.09 µM.
As for `CNC[C@@H]1NC(=O)CSC[C@@H](C(=O)N[C@@H](C)C(N)=O)NC(=O)[C@H](C(C)O)NC(=O)[C@H](C(C)C)NC(=O)[C@H](CC(C)C)NC(=O)[C@H](CCN)NC(=O)[C@@H](CC(C)C)NC(=O)[C@H](C)N(C)C(=O)[C@H](CCCNC(N)=O)NC(=O)[C@H](Cc2ccc(-c3ccccc3)cc2)NC(=O)[C@H](C(C)C)NC(=O)[C@H](Cc2c[nH]c3ccccc23)NC(=O)[C@H](CC(=O)O)NC(=O)[C@H](Cc2ccc(O)cc2)NC1=O` (stereo partly drawn) [Compound 2034] ({CH2CO}-[Dap(Me)]YDWV[Bip][Cit][NMeA][dL][Dab]LV[Thr(3ξ)]CA-NH2; thioether N-14), the IC50 amounted to 0.06 µM.
`CC(C)C[C@@H]1NC(=O)[C@H](CCN)NC(=O)[C@@H](CC(C)C)NC(=O)[C@H](C)N(C)C(=O)[C@H](Cc2cnc[nH]2)NC(=O)[C@H](Cc2ccc(-c3ccccc3)cc2)NC(=O)[C@H](C(C)C)NC(=O)[C@H](Cc2c[nH]c3ccccc23)NC(=O)[C@H](CC(=O)O)NC(=O)[C@H](Cc2cccc(C#N)c2)NC(=O)[C@H](CC(N)=O)NC(=O)CSC[C@@H](C(=O)N[C@@H](C)C(N)=O)NC(=O)[C@H]([C@@H](C)O)NC(=O)[C@H](C(C)C)NC1=O` [Compound 1375] ({CH2CO}-N[Phe(3-CN)]DWV[Bip]H[NMeA][dL][Dab]LVTCA-NH2; thioether N-14): the IC50 was found to be 0.05 µM.

The values above are taken from patent publication US20240409585A1, “MACROCYCLIC IMMUNOMODULATORS” (priority 2021, published 2024).
